{"source": "patent US9714245B2", "about": "“Carboline compounds usable in the treatment of neurodegenerative diseases” (ALZPROTECT, priority 2013, dated 2017)", "key": {"secreted Aβ1-40": {"tested_on": "secreted Aβ1-40", "assay": "Aβ1-40 secretion by APP-transfected neuroblastoma cells (ELISA)", "format": "cell-based", "settings": "Homo sapiens, Neuroblastoma cell; SKNSH-SYSY APPWT cells; concentration decreasing secreted Aβ1-40 to 50% of basal amount", "description": "(§1) Cell Cultures and Transfections to Test Activity on Aβ1-40 and Aβ1-42 Secretion\n(§2) Human neuroblastoma cell line SKNSH-SYSY (ATCC® Catalog No. CRL-2266™), HEK (ATCC® CRL-1573™) and COS-1 (ATCC® CRL-1650™) cells were maintained in Dulbecco's modified Eagle medium (DMEM, GIBCO BRL) supplemented with 10% fetal calf serum, 2 mM L-glutamine, 1 mM non-essential amino acids, 50 units/ml penicillin/streptomycin (Invitrogen, France) in a 5% CO2 humidified incubator at 37° C. APP695 cDNA was subcloned into eukaryotic expression vector pcDNA3 (Invitrogen), allowing for a G418 (Invitrogen) selection of clones. This APP cDNA coding for the 695 amino acid long isoform was transfected into SKNSH-SYSY cells using the ethyleneimine polymer ExGen 500 (Euromedex) according to the manufacturer's instructions. The cells expressing APP (SKNSH-SYSY APP^WT) were selected by the addition of 200 μg/ml G418 in the cell medium. To quantify AR which released in the cell culture medium, the collected medium was spun at 200×g to eliminate the cell debris. The concentrations of secreted Aâ1-40 and Aβ1-42 were determined using the Human Aβ (1-40) Assay Kit (IBL) or the INNOTEST™ beta-Amyloid (1-42) ELISA Kit (Innogenetics), according to manufacturer's instructions. The results were expressed as IC50, i.e. the concentration able to decrease to 50% the basal amount of secreted Aβ peptide 1-40 and 1-42."}, "[1]": {"assay": "Metabolic stability (method not described)", "settings": "comparative statement"}, "sAPPα": {"tested_on": "sAPPα", "assay": "Soluble APPα quantification (ELISA)", "format": "cell-based, Human", "settings": "24 h, control considered as 100", "description": "Soluble APPα Quantification\nHuman neuroblastoma cell line SKNSH-SYSY APP′ was cultured in Dulbecco's modified Eagle medium (Invitrogen) supplemented with 10% fetal calf serum (PAA), 2 mM L-glutamine (Invitrogen), 1 mM non-essential amino acids (Invitrogen), 50 units/ml penicillin/streptomycin (Invitrogen), and 200 μg G418=geneticin (Invitrogen) (selection for cell expressing APP) in a 5% CO2 humidified incubator at 37° C. Cells were counted and seed at 400000 cells/well into a 12-wells plate for 24 h. The day after, cells were treated with 700 μL/well of drug at 0.3; 1; 3 and 10 μM and incubated for 24 h in a 5% CO2 incubator at 37° C. After treatment, culture medium samples were collected and stored at −80° C. until analysis. Samples corresponding to the 1 and 10 μM treatment were centrifuged 1500 rpm for 5 min at 4° C. sAPPα quantification by ELISA was done with Human sAPPα Assay Kit-IBL (Cat#27734) in accordance with manufacturer's protocol. Samples were diluted at 1:150 in the diluent buffer provided in the kit. Each sample was loaded in duplicate onto the 96 well-plate. Results are expressed in ng/ml and then compared to control conditions (considered as 100 in arbitrary units) and are presented for two concentrations of the drug: 1 and 10 μM."}, "[2]": {"assay": "Cytotoxicity evaluation (MTS assay)", "format": "cell-based, Human", "settings": "human, SY5Y-APPWT neuroblastoma cells (expressing APP); SY5Y-APPWT cells, 24 h treatment, MTS", "description": "(§3) Human neuroblastoma cell line SY5Y-APP^WT was used to assess the cytotoxic effects of each compound. SY5Y-APP^WT cells were seeded at 20000 cells/well onto 96-well plates and were cultured in Dulbecco's modified Eagle medium (DMEM, Invitrogen) supplemented with 10% fetal calf serum (PAA), 2 mM L-glutamine (Invitrogen), 1 mM non-essential amino acids (Invitrogen), 50 units/ml penicillin/streptomycin (Invitrogen), and 200 μg G418=geneticin (Invitrogen) (selection for cells expressing APP) in a 5% CO2 humidified incubator at 37° C. After 24 h, the cells were washed and incubated with the compound at 0.1; 0.3; 1; 3; 10; 30 and 100 μM or with DMSO as control diluted in the same culture medium at 37° C. in 5% CO2. After 24 h of treatment, cytotoxicity was determined by using colorimetric MTS assay (CellTiter 96® Aqueous One Solution Cell Proliferation Assay-MTS Promega) according to the protocol of the manufacturer. Absorbance was read at 490 nm and results were expressed as % from control condition considered as 100%."}, "SY5Y-APPWT cells": {"tested_on": "SY5Y-APPWT cells", "assay": "Cytotoxicity evaluation (MTS assay)", "format": "cell-based, Human", "settings": "comparative statement", "description": "as §3"}, "CTFα": {"tested_on": "CTFα", "assay": "In vivo chronic treatment, CTFα in brain tissue", "design": "species or system C57Bl6 mice", "settings": "12 weeks in drinking water, 3 mg/kg", "description": "In Vivo Chronic Treatment\nFemale C57Bl6 mice of 4 month-old were treated with either vehicle (control) or drug at 1 and 3 mg/kg (n=10 per group) for 12 weeks in drinking water. First of all, all mice were weighted and distributed in each cage in order to have approximately the same average of weight±SD per cage. Each concentration of product as well as vehicule was prepared in sterile bottles and the bottles were kept at room temperature protected from light. The drinking bottles were filled weekly and weighted. Volume consumed was calculated by weighting each bottle after each week and the remaining volume was discarded. After 12 weeks, mice were sacrificed and their troncal blood was collected and stored at 4° C. Brains were immediately removed to dissect the Frontal Cortex, the Cortex around the Hippocampus and the Hippocampus. These areas were stored at −80° C. until use. Blood was then centrifuged at 2100×g for 5 min. Resulting plasma was used to quantify the circulating drug and brain tissues were used for biochemical determinations (PFC: prefrontal cortex and HIP: hippocampus)."}, "secreted Aβ1-42": {"tested_on": "secreted Aβ1-42", "assay": "Aβ1-42 secretion by APP-transfected neuroblastoma cells (ELISA)", "format": "cell-based", "settings": "Homo sapiens, Neuroblastoma cell; SKNSH-SYSY APPWT cells; concentration decreasing secreted Aβ1-42 to 50% of basal amount", "description": "as §1, §2"}, "AICD": {"tested_on": "AICD", "assay": "Quantification of AICD by Western blot in SY5Y-APPWT cells", "format": "cell-based, Human", "settings": "compared to a control with a value of 100", "description": "Quantifications of APP-CTFs and AICD\nAfter treatment, SY5Y-APP^WT cells were scrapped and lysed in 1× Lysis Buffer (250 mM NaCl, 50 mM Tris, pH 8.8, 5 mM EDTA, 2.5% Triton X-100, 1% Deoxycholate, 0.1% SDS). For the Western blotting, an equal amount of total proteins (20 μg/lane) was loaded on a 16.5% Tris-Tricine or 8-16% Tris-Glycine polyacrylamide gel.\nSDS-polyacrylamide gel electrophoresis (PAGE) was performed using the Criterion™ Tris-Tricine-precast or Bis-Tris-precast criterion gels (Bio-Rad Bioresearch division). Proteins were transferred to a […] nitrocellulose membrane (Hybond, Amersham Biosciences) at 2.5 mA/cm2 per gel using the Criterion™ Blotter system (Amersham Biosciences), according to the manufacturer's instructions. Proteins were reversibly stained with Ponceau Red in order to check the quality of the transfer of protein. The membranes were blocked in 25 mM Tris-HCl pH 8.0, 150 mM NaCl, 0.1% Tween-20 (v/v) and 5% (w/v) of skimmed milk for 30 min. Membranes were incubated overnight at 4° C. with appropriate dilution of the primary antibodies, and were incubated for 1 h at room temperature with secondary antibody. […] Quantifications were calculated with Image J software (NIH) and the data were collected using Excel Software (Microsoft). The loading variations between Western blot lanes were normalized according to the tubulin signal. Quantification of CTFα and AICD were compared to control conditions (considered as 100 in arbitrary units) and are presented for two concentrations of the drug: 1 and 10 μM."}}}
{"smiles": "Fc1ccc2[nH]c3c(c2c1)CN(CCCN1CCN(CCCN2CCCC2)CC1)CC3", "note": "[Compound 3.1f, 8-Fluoro-2-{3-[4-(3-(pyrrolidin-1-yl)propyl)piperazin-1-yl]propyl}-2,3,4,5-tetrahydro-1H-pyrido[4,3-b]indole]", "values": [{"measurement": "IC50", "setting": "secreted Aβ1-40", "value": 3, "unit": "µM"}, {"measurement": "metabolic stability (in words)", "setting": "[1]", "value": "metabolically more stable"}, {"measurement": "sAPPα (10 μM)", "setting": "sAPPα", "value": 100, "unit": "arbitrary units"}, {"measurement": "CC50 at 24 h", "setting": "[2]", "value": "> 100", "unit": "µM"}, {"measurement": "toxicity (in words)", "setting": "SY5Y-APPWT cells", "value": "less toxic"}, {"measurement": "increase of CTFα in hippocampus (HIP)", "setting": "CTFα", "value": 25, "unit": "%"}, {"measurement": "increase of CTFα in prefrontal cortex (PFC)", "setting": "CTFα", "value": 20, "unit": "%"}, {"measurement": "IC50", "setting": "secreted Aβ1-42", "value": 1, "unit": "µM"}, {"measurement": "AICD (10 μM)", "setting": "AICD", "value": 1011, "unit": "arbitrary units"}]}
